{"source": "patent US20200038513A1", "about": "“MODULATORS OF FAK PROTEOLYSIS AND ASSOCIATED METHODS OF USE” (ARVINAS OPERATIONS, INC., priority 2018, published 2020)", "system": "MDA-MB-231 cells", "experiment": "RPPA (reverse phase protein array)", "assay_type": "cell-based, human", "conditions": "500nM", "method": "RPPA analysis was performed by MD Anderson Cancer Center RPPA core facility.\nExamination of the Molecular Signaling Events) and/or Downstream Pathways Responsible for the Migration and Invasion Effects Observed by Exemplary Compound Treatment. To pinpoint these observations to a molecular signaling event or specific downstream pathway, reverse phase protein array (RPPA) analysis was performed (Table 4)."}
{"compound": "Cc1ncsc1-c1ccc(CNC(=O)[C@@H]2C[C@@H](O)CN2C(=O)[C@@H](NC(=O)CCOCCOc2ccc(Nc3ncc(C(F)(F)F)c(NCc4cccc(N(C)S(C)(=O)=O)c4)n3)cc2)C(C)(C)C)cc1", "note": "[Compound 102, (2S,4R)-1-((S)-3,3-dimethyl-2-(3-(2-(4-((4-((3-(N-methylmethylsulfonamido)benzyl)amino)-5-(trifluoromethyl)pyrimidin-2-yl)amino)phenoxy)ethoxy)propanamido)butanoyl)-4-hydroxy-N-(4-(4-methylthiazol-5-yl)benzyl)pyrrolidine-2-carboxamide]", "values": [{"measurement": "rel. Protein level, Mnk1", "value": 97.2, "unit": "%"}, {"measurement": "rel. Protein level, Myosin-11", "value": 101.0, "unit": "%"}, {"measurement": "rel. Protein level, Myosin-IIa_pS1943", "value": 113.7, "unit": "%"}, {"measurement": "rel. Protein level, Myt1", "value": 93.2, "unit": "%"}, {"measurement": "rel. Protein level, N-Cadherin", "value": 104.0, "unit": "%"}, {"measurement": "rel. Protein level, N-Ras", "value": 98.6, "unit": "%"}, {"measurement": "rel. Protein level, NAPSIN-A", "value": 99.4, "unit": "%"}, {"measurement": "rel. Protein level, NDRG1_pT346", "value": 118.1, "unit": "%"}, {"measurement": "rel. Protein level, NDUFB4", "value": 100.5, "unit": "%"}, {"measurement": "rel. Protein level, NF-kB-p65_pS536", "value": 108.3, "unit": "%"}, {"measurement": "rel. Protein level, Notch1", "value": 105.8, "unit": "%"}, {"measurement": "rel. Protein level, Notch3", "value": 112.1, "unit": "%"}, {"measurement": "rel. Protein level, Oct-4", "value": 102.3, "unit": "%"}, {"measurement": "rel. Protein level, P-Cadherin", "value": 108.3, "unit": "%"}, {"measurement": "rel. Protein level, PAI-1", "value": 106.1, "unit": "%"}, {"measurement": "rel. Protein level, PAICS", "value": 98.1, "unit": "%"}, {"measurement": "rel. Protein level, PAK1", "value": 106.0, "unit": "%"}, {"measurement": "rel. Protein level, PAK4", "value": 95.1, "unit": "%"}, {"measurement": "rel. Protein level, PAR", "value": 158.2, "unit": "%"}, {"measurement": "rel. Protein level, PARP", "value": 104.5, "unit": "%"}, {"measurement": "rel. Protein level, PCNA", "value": 97.5, "unit": "%"}, {"measurement": "rel. Protein level, PD-1", "value": 98.8, "unit": "%"}, {"measurement": "rel. Protein level, PD-L1", "value": 95.8, "unit": "%"}, {"measurement": "rel. Protein level, PDGFR-b", "value": 124.5, "unit": "%"}, {"measurement": "rel. Protein level, PDHK1", "value": 102.2, "unit": "%"}, {"measurement": "rel. Protein level, PDK1", "value": 99.6, "unit": "%"}, {"measurement": "rel. Protein level, PDK1_pS241", "value": 103.2, "unit": "%"}, {"measurement": "rel. Protein level, PEA-15", "value": 97.9, "unit": "%"}, {"measurement": "rel. Protein level, PEA-15_pS116", "value": 98.0, "unit": "%"}, {"measurement": "rel. Protein level, PI3K-p85", "value": 100.1, "unit": "%"}, {"measurement": "rel. Protein level, PI3K-p110-a", "value": 107.4, "unit": "%"}, {"measurement": "rel. Protein level, PI3K-p110-b", "value": 94.8, "unit": "%"}, {"measurement": "rel. Protein level, PKA-a", "value": 105.1, "unit": "%"}, {"measurement": "rel. Protein level, PKC-b-II_pS660", "value": 93.7, "unit": "%"}, {"measurement": "rel. Protein level, PKC-delta_pS664", "value": 98.8, "unit": "%"}, {"measurement": "rel. Protein level, PKCa", "value": 113.3, "unit": "%"}, {"measurement": "rel. Protein level, PKM2", "value": 105.8, "unit": "%"}, {"measurement": "rel. Protein level, PLC-gamma2_pY759", "value": 97.9, "unit": "%"}, {"measurement": "rel. Protein level, PLK1", "value": 95.0, "unit": "%"}, {"measurement": "rel. Protein level, PMS2", "value": 96.4, "unit": "%"}, {"measurement": "rel. Protein level, PR", "value": 96.8, "unit": "%"}, {"measurement": "rel. Protein level, PRAS40", "value": 104.0, "unit": "%"}, {"measurement": "rel. Protein level, PRAS40_pT246", "value": 92.3, "unit": "%"}, {"measurement": "rel. Protein level, PREX1", "value": 102.5, "unit": "%"}, {"measurement": "rel. Protein level, PTEN", "value": 124.6, "unit": "%"}, {"measurement": "rel. Protein level, Paxillin", "value": 91.8, "unit": "%"}, {"measurement": "rel. Protein level, Pdcd4", "value": 120.2, "unit": "%"}, {"measurement": "rel. Protein level, Porin", "value": 97.8, "unit": "%"}, {"measurement": "rel. Protein level, RBM15", "value": 105.1, "unit": "%"}, {"measurement": "rel. Protein level, RIP", "value": 105.6, "unit": "%"}, {"measurement": "rel. Protein level, RPA32", "value": 98.4, "unit": "%"}, {"measurement": "rel. Protein level, RPA32_pS4-S8", "value": 102.8, "unit": "%"}, {"measurement": "rel. Protein level, RSK", "value": 99.0, "unit": "%"}, {"measurement": "rel. Protein level, Rab11", "value": 102.8, "unit": "%"}, {"measurement": "rel. Protein level, Rab25", "value": 100.2, "unit": "%"}, {"measurement": "rel. Protein level, Rad50", "value": 103.9, "unit": "%"}, {"measurement": "rel. Protein level, Rad51", "value": 89.6, "unit": "%"}, {"measurement": "rel. Protein level, Raptor", "value": 103.3, "unit": "%"}, {"measurement": "rel. Protein level, Rb", "value": 106.3, "unit": "%"}, {"measurement": "rel. Protein level, Rb_pS807_S811", "value": 92.3, "unit": "%"}, {"measurement": "rel. Protein level, Rheb", "value": 103.3, "unit": "%"}, {"measurement": "rel. Protein level, Rictor", "value": 126.9, "unit": "%"}, {"measurement": "rel. Protein level, Rictor_pT1135", "value": 92.3, "unit": "%"}, {"measurement": "rel. Protein level, S6", "value": 112.2, "unit": "%"}, {"measurement": "rel. Protein level, S6_pS235_S236", "value": 57.3, "unit": "%"}, {"measurement": "rel. Protein level, S6_pS240_S244", "value": 51.9, "unit": "%"}, {"measurement": "rel. Protein level, b-Actin", "value": 97.4, "unit": "%"}, {"measurement": "rel. Protein level, b-Catenin", "value": 108.4, "unit": "%"}, {"measurement": "rel. Protein level, b-Catenin_pT41_S45", "value": 96.8, "unit": "%"}, {"measurement": "rel. Protein level, c-Abl", "value": 95.2, "unit": "%"}, {"measurement": "rel. Protein level, c-IAP2", "value": 100.4, "unit": "%"}, {"measurement": "rel. Protein level, c-Jun_pS73", "value": 92.3, "unit": "%"}, {"measurement": "rel. Protein level, c-Kit", "value": 100.1, "unit": "%"}, {"measurement": "rel. Protein level, c-Met_pY1234_Y1235", "value": 101.1, "unit": "%"}, {"measurement": "rel. Protein level, c-Myc", "value": 89.2, "unit": "%"}, {"measurement": "rel. Protein level, cdc2_pY15", "value": 92.3, "unit": "%"}]}
